Source: ChEMBL document CHEMBL3352403, “New class of methyl tetrazole based hybrid of (Z)-5-benzylidene-2-(piperazin-1-yl)thiazol-4(%H)-one as potent antitubercular agents” (Bioorg Med Chem Lett, 2014)
Values after ≈ are worked out from the molar mass of the structure shown. Values joined by “and” are separate entries in the source; they are usually repeats but may differ in a detail not shown here. Identical values can stand only once.

Tests used:
[1] = tested on: Mycobacterium tuberculosis; assay: Antitubercular activity against Mycobacterium tuberculosis H37Rv after 4 weeks; assay type: functional; settings: 672 h
[2] = Cytotoxicity against african green monkey Vero cells after 24 hrs by MTS assay; assay type: cell-based; settings: chlorocebus sabaeus
[3] = Cytotoxicity against mouse MBMDMphi cells after 48 hrs by MTS assay; assay type: cell-based
[4] = tested on: Mycobacterium tuberculosis; assay: Ratio of ethambutol MIC to compound MIC for Mycobacterium tuberculosis H37Rv after 4 weeks; assay type: functional

| Structure (SMILES) | MIC [1] | CC50 at 24 h [2] [µM] | CC50 at 48 h [3] [µM] | Ratio [4] |
| --- | --- | --- | --- | --- |
| CC(C)(C)n1nnnc1C(c1ccccc1)N1CCN(C2=NC(=O)/C(=C/c3ccccc3)S2)CC1 (centres undefined) | > 12.5 µg/mL | – | – | – |
| CC(C)(C)n1nnnc1C(c1ccccc1F)N1CCN(C2=NC(=O)/C(=C/c3ccccc3)S2)CC1 (centres undefined) | 6.25 µg/mL and 12.3 µM | > 100 | > 100 | – |
| CC(C)(C)n1nnnc1C(c1ccc(F)cc1)N1CCN(C2=NC(=O)/C(=C/c3ccccc3)S2)CC1 (centres undefined) | 1.56 µg/mL and 3.08 µM | > 100 | > 100 | 3 |
| CC(C)(C)n1nnnc1C(c1ccccc1Cl)N1CCN(C2=NC(=O)/C(=C/c3ccccc3)S2)CC1 (centres undefined) | 12.5 µg/mL and 23.9 µM | > 100 | > 100 | – |
| CC(C)(C)n1nnnc1C(c1ccc(Cl)cc1)N1CCN(C2=NC(=O)/C(=C/c3ccccc3)S2)CC1 (centres undefined) | 6.25 µg/mL and 11.9 µM | > 100 | > 100 | – |
| CC(C)c1ccc(C(c2nnnn2C(C)(C)C)N2CCN(C3=NC(=O)/C(=C/c4ccccc4)S3)CC2)cc1 (centres undefined) | > 12.5 µg/mL | > 100 | > 100 | – |
| COc1ccc(C(c2nnnn2C(C)(C)C)N2CCN(C3=NC(=O)/C(=C/c4ccccc4)S3)CC2)cc1 (centres undefined) | 1.56 µg/mL and 3.01 µM | > 100 | > 100 | 3 |
| COc1ccc(C(c2nnnn2C(C)(C)C)N2CCN(C3=NC(=O)/C(=C/c4ccccc4)S3)CC2)cc1OC (centres undefined) | 6.25 µg/mL and 11.4 µM | > 100 | > 100 | – |
| COc1cc(C(c2nnnn2C(C)(C)C)N2CCN(C3=NC(=O)/C(=C/c4ccccc4)S3)CC2)cc(OC)c1OC (centres undefined) | 6.25 µg/mL and 10.8 µM | > 100 | > 100 | – |
| CC(C)(C)n1nnnc1C(c1ccncc1)N1CCN(C2=NC(=O)/C(=C/c3ccccc3)S2)CC1 (centres undefined) | 6.25 µg/mL and 12.8 µM | – | – | – |
| CC(C)(C)n1nnnc1C(c1cccnc1)N1CCN(C2=NC(=O)/C(=C/c3ccccc3)S2)CC1 (centres undefined) | 6.25 µg/mL and 12.8 µM | > 100 | > 100 | – |
| CC(C)(C)n1nnnc1C(c1ccoc1)N1CCN(C2=NC(=O)/C(=C/c3ccccc3)S2)CC1 (centres undefined) | 6.25 µg/mL and 13.1 µM | > 100 | 45.9 | – |
| O=C1N=C(N2CCN(C(c3ccccc3)c3nnnn3C3CCCCC3)CC2)S/C1=C\c1ccccc1 (centres undefined) | 6.25 µg/mL and 12.1 µM | > 100 | > 100 | – |
| O=C1N=C(N2CCN(C(c3ccccc3F)c3nnnn3C3CCCCC3)CC2)S/C1=C\c1ccccc1 (centres undefined) | 12.5 µg/mL (≈ 23.5 µM) | – | – | – |
| O=C1N=C(N2CCN(C(c3ccc(F)cc3)c3nnnn3C3CCCCC3)CC2)S/C1=C\c1ccccc1 (centres undefined) | 6.25 µg/mL and 11.7 µM | > 100 | > 100 | – |
| O=C1N=C(N2CCN(C(c3ccccc3Cl)c3nnnn3C3CCCCC3)CC2)S/C1=C\c1ccccc1 (centres undefined) | 6.25 µg/mL and 11.4 µM | > 100 | > 100 | – |
| O=C1N=C(N2CCN(C(c3ccc(Cl)cc3)c3nnnn3C3CCCCC3)CC2)S/C1=C\c1ccccc1 (centres undefined) | 12.5 µg/mL and 22.8 µM | – | – | – |
| CC(C)c1ccc(C(c2nnnn2C2CCCCC2)N2CCN(C3=NC(=O)/C(=C/c4ccccc4)S3)CC2)cc1 (centres undefined) | 6.25 µg/mL and 11.2 µM | > 100 | > 100 | – |
| COc1ccc(C(c2nnnn2C2CCCCC2)N2CCN(C3=NC(=O)/C(=C/c4ccccc4)S3)CC2)cc1 (centres undefined) | 6.25 µg/mL and 11.5 µM | – | – | – |
| COc1ccc(C(c2nnnn2C2CCCCC2)N2CCN(C3=NC(=O)/C(=C/c4ccccc4)S3)CC2)cc1OC (centres undefined) | 6.25 µg/mL and 10.9 µM | – | – | – |
| COc1cc(C(c2nnnn2C2CCCCC2)N2CCN(C3=NC(=O)/C(=C/c4ccccc4)S3)CC2)cc(OC)c1OC (centres undefined) | 6.25 µg/mL and 10.3 µM | > 100 | > 100 | – |
| O=C1N=C(N2CCN(C(c3ccncc3)c3nnnn3C3CCCCC3)CC2)S/C1=C\c1ccccc1 (centres undefined) | 6.25 µg/mL and 12.1 µM | – | – | – |
| O=C1N=C(N2CCN(C(c3cccnc3)c3nnnn3C3CCCCC3)CC2)S/C1=C\c1ccccc1 (centres undefined) | 6.25 µg/mL and 12.1 µM | – | – | – |
| O=C1N=C(N2CCN(C(c3ccoc3)c3nnnn3C3CCCCC3)CC2)S/C1=C\c1ccccc1 (centres undefined) | 6.25 µg/mL and 12.4 µM | – | – | – |
| CC[C@@H](CO)NCCN[C@@H](CC)CO [ETHAMBUTOL] | 2 µg/mL and 9.78 µM | – | – | – |
| NNC(=O)c1ccncc1 [ISONIAZID] | 0.02 µg/mL and 0.14 µM | – | – | – |
| NC(=O)c1cnccn1 [PYRAZINAMIDE] | 12.5 µg/mL and 102 µM | – | – | – |
